Reference: patent publication US12576115B2, “Bacterial compositions for treating and preventing halitosis” (Imvela Corp., priority 2023, dated 2026)

Legend:
[1] = tested on: volatile sulfur compounds (VSCs); experiment: VSC reduction in an environment having a pH of less than 7.5 (Table 1, (c)); conditions: capable of reducing the abundance of one or more VSCs in an environment having a pH of less than 7.5
Text: (§1) Exemplary bacterial strains determined to be capable of (b) reducing the pH of an environment from 7.5 or higher to less than 7.5; (c) reducing the abundance of one or more VSCs in an environment having a pH of less than 7.5; and/or (d) enhances the reduction of one or more VSCs by another bacterial strain in an environment with a pH of 7.5 or higher, are listed below in Table 1.
Some bacterial strains of compositions, nutritional supplements, dental supplements, and food products were identified based on the ability to reduce the abundance of volatile sulfur compounds (VSCs) in an environment, and/or inhibit the production of VSCs by other microorganisms in the environment. VSCs are associated with the unpleasant odor of breath of subjects with halitosis, and reduction in VSC abundance (e.g., by VSC metabolism or inhibition of VSC production) is expected to alleviate this symptom of halitosis. Non-limiting examples of such VSCs include hydrogen sulfide, methyl mercaptan, and dimethyl sulfide, all of which give off strong and unpleasant odors.

[2] = pH reduction of an environment by bacterial strain (Table 1, (b)); conditions: capable of reducing the pH of an environment from 7.5 or higher to less than 7.5
Text: as §1

| Substance | (c) VSC reduction [1] | (b) pH reduction [2] |
| --- | --- | --- |
| Pediococcus acidilactici | Yes | Yes |
| Bifidobacterium longum | – | Yes |
| Lactobacillus acidophilus | Yes | Yes |
